Laboratory results: ChEMBL document CHEMBL4330076, “Quinazolin-2,4-dione-Based Hydroxamic Acids as Selective Histone Deacetylase-6 Inhibitors for Treatment of Non-Small Cell Lung Cancer” (J Med Chem, 2019)

How the values were obtained:
[1] = Ratio of compound AUC (0 to 24 hrs) to ACY-1215 AUC (0 to 24 hrs) in C57BL/6 mouse lung at 40 mg/kg, po administered via gavage by LC-MS/MS analysis; assay type: ADME, organism-based; conditions: in vivo
A549 [2] = experiment: Induction of apoptosis in human A549 cells assessed as late apoptotic cells at 4 uM after 24 hrs by Annexin V/propidium iodide staining-based flow cytometric analysis (reference value: 1.6%); assay type: functional
[3] = Ratio of compound AUC (0 to 24 hrs) to ACY-1215 AUC (0 to 24 hrs) in C57BL/6 mouse plasma at 40 mg/kg, po administered via gavage by LC-MS/MS analysis; assay type: ADME, organism-based; conditions: in vivo
[4] = Drug uptake in C57BL/6 mouse plasma at 40 mg/kg, po administered via gavage by LC-MS/MS analysis; assay type: ADME, organism-based; conditions: in vivo
[5] = test system: Lewis lung carcinoma cell line; experiment: Induction of apoptosis in mouse LL/2 cells assessed as necrotic cells at 4 uM after 24 hrs in presence of paclitaxel by Annexin V/propidium iodide staining-based flow cytometric analysis (reference value: 7.3%); assay type: functional
[6] = Drug uptake in C57BL/6 mouse kidney at 40 mg/kg, po administered via gavage by LC-MS/MS analysis; assay type: ADME, organism-based; conditions: in vivo
[7] = Drug uptake in C57BL/6 mouse lung at 40 mg/kg, po administered via gavage co-administered with paclitaxel at 10 mg/kg, ip by LC-MS/MS analysis; assay type: ADME, organism-based; conditions: in vivo
[8] = Ratio of drug uptake in C57BL/6 mouse lung at 40 mg/kg, po administered via gavage co-administered with paclitaxel at 10 mg/kg, ip by LC-MS/MS analysis to drug uptake in C57BL/6 mouse lung at 40 mg/kg, po administered via gavage by LC-MS/MS analysis; assay type: ADME, organism-based; conditions: in vivo
[9] = Drug uptake in C57BL/6 mouse plasma at 40 mg/kg, po administered via gavage co-administered with paclitaxel at 10 mg/kg, ip by LC-MS/MS analysis; assay type: ADME, organism-based; conditions: in vivo
[10] = Ratio of compound AUC (0 to 24 hrs) to ACY-1215 AUC (0 to 24 hrs) in C57BL/6 mouse kidney at 40 mg/kg, po administered via gavage by LC-MS/MS analysis; assay type: ADME, organism-based; conditions: in vivo
[11] = Drug uptake in C57BL/6 mouse lung at 40 mg/kg, po administered via gavage by LC-MS/MS analysis; assay type: ADME, organism-based; conditions: in vivo
A549 [12] = experiment: Induction of apoptosis in human A549 cells assessed as early apoptotic cells at 4 uM after 24 hrs by Annexin V/propidium iodide staining-based flow cytometric analysis (reference value: 1.2%); assay type: functional
[13] = Drug uptake in C57BL/6 mouse liver at 40 mg/kg, po administered via gavage co-administered with paclitaxel at 10 mg/kg, ip by LC-MS/MS analysis; assay type: ADME, organism-based; conditions: in vivo
[14] = Drug metabolism in C57BL/6 mouse lung assessed as hydrolysis metabolite formation at 40 mg/kg, po administered via gavage by LC-MS/MS analysis; assay type: ADME, organism-based; conditions: in vivo
[15] = Drug metabolism in C57BL/6 mouse liver assessed as hydrolysis metabolite formation at 40 mg/kg, po administered via gavage by LC-MS/MS analysis; assay type: ADME, organism-based; conditions: in vivo

Ratio AUC [1]: 2.1
Ratio AUC [3]: 0.2
Cp [4]: 13 ng/mL
Drug uptake [6]: 130 ng/g
Drug uptake [7]: 331 ng/g
Ratio [8]: 1.6
Cp [9]: 160 ng/mL
Ratio AUC [10]: 0.8
Drug uptake [11]: 212 ng/g
Drug uptake [13]: 719 ng/g
Drug metabolism [14]: Metabolite_Detected
Drug metabolism [15]: Metabolite_Detected
SMILES: O=C(NO)c1ccc(Cn2c(=O)n(CCc3ccccc3)c(=O)c3ccccc32)cc1
Activity (A549 [2]): 0.7%
Activity [5]: 5.3%
Activity (A549 [12]): 1.3%
